Test results from patent US20100111888A1, “Organic Compounds and Compositions Having the Ability to Modulate Fragrance Compositions” (GIVAUDAN SA, priority 2007, published 2010).
pIC50: −log10 of the molar value.

Legend:
Assay type in all cases: biochemical
CYP2A13 = molecular target: T1, CYP2A13 (Homo sapiens, UniProt Q16696); experiment: Evaluation of test compounds as inhibitors of CYP2A13 (coumarin to Umbelliferone, fluorescence); conditions: substrate coumarin 0.006 mM; microsomes with 7 pmoles CYP2A13; 60 min at 37° C.; read-out: CYP2A13 inhibitor activity IC50
T1 construct: made in house; host or cells: Sf9 insect cells, recombinant baculovirus
T1 sequence (Q16696 1-494): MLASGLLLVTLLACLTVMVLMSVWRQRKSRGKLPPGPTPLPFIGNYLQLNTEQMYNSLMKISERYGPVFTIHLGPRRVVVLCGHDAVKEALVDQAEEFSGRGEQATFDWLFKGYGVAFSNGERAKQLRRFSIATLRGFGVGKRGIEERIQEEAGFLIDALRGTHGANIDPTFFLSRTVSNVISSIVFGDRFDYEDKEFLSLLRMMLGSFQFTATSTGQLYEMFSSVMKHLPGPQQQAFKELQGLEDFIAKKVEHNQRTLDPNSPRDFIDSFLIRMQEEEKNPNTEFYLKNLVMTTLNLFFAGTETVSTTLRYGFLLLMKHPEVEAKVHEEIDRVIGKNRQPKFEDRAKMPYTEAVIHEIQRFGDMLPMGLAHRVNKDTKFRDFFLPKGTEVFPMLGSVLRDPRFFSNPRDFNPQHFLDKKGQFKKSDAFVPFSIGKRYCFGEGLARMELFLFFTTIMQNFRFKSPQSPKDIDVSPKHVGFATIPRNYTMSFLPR
Excerpt: P450 reductase is commercially available (BD Biosciences Gentest, USA).
Microsomes were used which contained 7 pmoles CYP2A13.

CYP2A6 = molecular target: T2, CYP2A6 (Homo sapiens, UniProt P11509); experiment: Evaluation of test compounds as inhibitors of CYP2A6 (coumarin to Umbelliferone, fluorescence); conditions: substrate coumarin 0.003 mM; microsomes with 2 pmoles CYP2A6; 60 min at 37° C.; read-out: CYP2A6 inhibitor activity IC50
T2 construct: purchased BD Biosciences Gentest, USA
T2 sequence (P11509 1-494): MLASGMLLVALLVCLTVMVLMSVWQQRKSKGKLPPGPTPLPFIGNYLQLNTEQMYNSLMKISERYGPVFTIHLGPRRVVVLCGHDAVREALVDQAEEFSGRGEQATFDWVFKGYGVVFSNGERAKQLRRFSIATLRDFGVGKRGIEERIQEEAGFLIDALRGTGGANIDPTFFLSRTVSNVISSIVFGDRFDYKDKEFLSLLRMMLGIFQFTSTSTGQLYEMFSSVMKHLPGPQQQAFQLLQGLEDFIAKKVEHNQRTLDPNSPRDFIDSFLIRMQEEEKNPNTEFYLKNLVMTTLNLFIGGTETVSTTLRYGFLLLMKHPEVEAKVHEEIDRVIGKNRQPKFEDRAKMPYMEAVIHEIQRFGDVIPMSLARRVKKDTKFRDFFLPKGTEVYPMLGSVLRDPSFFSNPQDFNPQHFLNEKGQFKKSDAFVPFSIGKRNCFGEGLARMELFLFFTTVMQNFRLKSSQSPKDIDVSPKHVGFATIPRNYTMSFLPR
Description: Test compounds that inhibit the activity of CYP2A6 are identified by using the same principle as described in Example 1, first paragraph.
A test compound (details see Table 2) was incubated with CYP2A6 in the presence of a cytochrome P450 reductase. CYP2A6 and P450 reductase were employed in form of microsomes (BD Biosciences Gentest, USA). Microsomes were used which contained 2 pmoles CYP2A6 and an amount of NADPH-P450 reductase corresponding to cytochrome c reductase activity of 87 nmole/(min×mg protein). […] The concentration of the standard substrate coumarin was 0.003 mM.
The samples were analysed spectrofluorometrically according to the procedure described in Example 1.

CYP2B6 = molecular target: T3, CYP2B6 (Homo sapiens, UniProt P20813); experiment: Inhibition of human CYP2B6 (7-ethoxy-4-trifluoromethyl-coumarin, fluorescence); conditions: substrate 7-ethoxy-4-trifluoromethyl-coumarin 6 μM; microsomes with 1.5 pmoles CYP2B6; 40 min at 37° C.; read-out: CYP2B6 inhibitor activity IC50
T3 construct: made in house; host or cells: Sf9 insect cells, recombinant baculoviruses
T3 sequence (P20813 1-491): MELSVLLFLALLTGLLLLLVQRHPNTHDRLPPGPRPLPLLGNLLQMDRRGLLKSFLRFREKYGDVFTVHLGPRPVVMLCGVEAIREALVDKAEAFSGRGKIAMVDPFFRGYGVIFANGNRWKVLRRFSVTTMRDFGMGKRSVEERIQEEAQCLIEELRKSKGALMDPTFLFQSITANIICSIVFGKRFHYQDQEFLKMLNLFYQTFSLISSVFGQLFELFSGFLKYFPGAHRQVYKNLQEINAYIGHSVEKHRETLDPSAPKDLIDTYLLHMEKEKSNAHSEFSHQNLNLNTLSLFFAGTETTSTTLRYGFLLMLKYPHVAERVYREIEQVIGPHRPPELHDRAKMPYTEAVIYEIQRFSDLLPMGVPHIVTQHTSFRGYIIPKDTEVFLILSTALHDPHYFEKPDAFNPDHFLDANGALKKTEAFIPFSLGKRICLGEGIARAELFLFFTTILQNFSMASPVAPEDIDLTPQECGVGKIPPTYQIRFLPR
Description: Test compounds that inhibit the activity of CYP2B6 are identified by using the same principle as described in Example 1, first paragraph.
A test compound (details see Table 4) was incubated with CYP2B6 in the presence of a cytochrome P450 reductase. CYP2B6 and P450 reductase are produced using recombinant baculoviruses and co-expressing the two proteins in Sf9 insect cells as described in Example 1. Alternatively, microsomes containing CYP2B6 and the reductase are commercially available (BD Biosciences Gentest, USA). Microsomes were used which contained 1.5 pmoles CYP2B6. Potassium phosphate buffer final concentration was 100 mM, (1M stock, pH 7.4). […] The concentration of the standard substrate 7-ethoxy-4-trifluoromethyl-coumarin was 6 μM. […] The samples were incubated for 40 min at 37° C.

pIC50 (CYP2A13) | pIC50 (CYP2A6) | pIC50 (CYP2B6) | SMILES
5.32 | 3.83 | – | CCCCCC(Cc1ccccc1)C(C)=O (stereo not shown) [Compound ID 4, 3-phenylmethyloctan-2-one]
5.96 | 5.10 | 5.46 | CCCCCC/C(=C\C1CC1)C(C)=O [Compound ID 2, (E)-3-(cyclopropylmethylene)nonan-2-one]
6.30 | 5.52 | 5.41 | CCCC/C(=C\C1CC1)C(C)=O [Compound ID 1, (E)-3-(cyclopropylmethylene)heptan-2-one]
6.22 | 3.85 | – | CCCCC/C(=C\c1ccccc1)C(C)=O [Compound ID 5, (E)-3-benzylideneoctan-2-one]
6.52 | 5.15 | 5.40 | CCCCC/C(=C\C1CC1)C(C)=O [Compound ID 3, (E)-3-(cyclopropylmethylene)octan-2-one]
